Reference: patent US10301280B2 (Plexxikon Inc., priority 2012, dated 2019)

How the values were obtained:
[1] = system: BaF3-FL KIT D816V or BaF3-FL KIT V560G/D816V cell line; test: Cell-based assays of c-Kit mutant kinase activity (cell growth, ATPlite); details: at least one of the c-kit cell assays of Example 26
Summary of the method: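 IC50 derived from ATP-content luminescence (ATPlite) after three-day compound exposure at 37° C., 5% CO2. Cells: BaF3 rendered growth-dependent on full-length human KIT D816V or V560G/D816V, 1×10^4 per well, RPMI plus 10% FBS; 8 points, 1:3 steps, maximum 10 μM final, 0.2% DMSO.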

c-kit mutant D816V = c-kit mutant D816V (Homo sapiens (Human), UniProt P10721, D816V/DEL694-753); test: c-Kit mutant D816V biochemical assay (AlphaScreen); details: c-kit D816V biochemical inhibitory activity
Sequence of c-kit mutant D816V (P10721 other isoform, or with tags, fused parts or gaps D816V/del 694-753): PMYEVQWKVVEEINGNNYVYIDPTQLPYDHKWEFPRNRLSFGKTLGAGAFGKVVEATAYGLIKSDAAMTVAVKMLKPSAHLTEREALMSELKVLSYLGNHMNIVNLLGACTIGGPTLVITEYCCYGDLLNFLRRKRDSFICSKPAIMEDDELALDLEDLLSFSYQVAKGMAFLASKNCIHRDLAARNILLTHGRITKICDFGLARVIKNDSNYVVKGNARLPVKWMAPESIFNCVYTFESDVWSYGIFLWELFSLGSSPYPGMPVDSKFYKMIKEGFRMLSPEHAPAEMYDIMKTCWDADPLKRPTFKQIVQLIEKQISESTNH
Method: The c-kit mutant D816V (or kinase domain thereof) is an active kinase in AlphaScreen. IC50 values are determined with respect to inhibition of c-Kit mutant D816V kinase activity, where inhibition of phosphorylation of a peptide substrate is measured as a function of compound concentration. Compounds to be tested were dissolved in DMSO to a concentration of 20 mM. These were diluted 30 μl into 120 μl of DMSO (4 mM) and 1 μl was added to an assay plate. These were then serially diluted 1:3 (50 μl to 100 μl DMSO) for a total of 8 points. Plates were prepared such that each kinase reaction is 20 μl in 1× kinase buffer (25 mM HEPES, pH 7.2, 8 mM MgCl2, 2 mM MnCl2, 50 mM NaCl, 0.01% Brij, 1 mM DTT, 0.01% BSA), 5% DMSO and 10 μM ATP. Substrate was 30 nM biotin-(E4Y)10 (EMD Millipore, Cat#12-440). C-kit mutant D816V kinase was at 0.75 ng per sample. After incubation of the kinase reaction for 30 minutes at room temperature, 5 μl of donor beads (Streptavidin coated beads (Perkin Elmer Life Science) final concentration 7.5 μg/ml) in stop buffer (25 mM Hepes pH 7.5, 100 mM EDTA, 0.01% BSA) was added, the sample was mixed and incubated for 20 minutes at room temperature before adding 5 μl of acceptor beads (PY20 coated beads (Perkin Elmer Life Science) final concentration 7.5 ug/ml) in stop buffer. The samples were incubated for 60 minutes at room temperature and the signal per well was read on EnVision reader. Phosphorylated substrate results in binding of the PY20 antibody and association of the donor and acceptor beads such that signal correlates with kinase activity. The signal vs. compound concentration was used to determine the IC50.
Recombinant c-kit mutant D816V (residues 551-934, kinase insertion domain residues 694-753 deleted) with a 6x-histidine N-terminal tag was expressed in E. coli Arctic Express (DE3) RIL (Stratagene). Cells were grown in Terrific Broth (TB) media to an OD600 of 0.6 at 37° C. at which temperature was reduced to 10° C., protein was induced with 1.0 mM IPTG for 18 hours and harvested by centrifugation at 8000×g for 20 minutes. Cells were re-suspended in 0.1M KPO4 pH 8.0, 250 mM NaCl, 10% Glycerol, 0.75% NP-40, 25 mM Imidazole, 5 mM BME with 0.2 mg/ml Lysosyme, 2.0 mM PMSF, 25 μg/ml DNAse I, incubated in ice for 30 minutes and lyzed with a cell disruptor (MicroFluidics). The lysate was clarified by centrifugation at 20,000×g for 2 hours. The protein was captured with Talon resin (Clontech). Contaminating proteins were washed off with 25 mM Tris-HCl pH 8.3, 250 mM NaCl, 15% Glycerol, 1% Triton X-100, and protein eluted using 100 mM EDTA. The protein was further purified using Gel Filtration column 26/600 Superdex 200 (GE) in 50 mM Tris-HCl, pH 8.0, 250 mM NaCl, 15% Glycerol, 5 mM BME. The protein was aliquoted and flash-frozen in liquid Nitrogen.

| SMILES | IC50 [1] | IC50 (c-kit mutant D816V) |
| --- | --- | --- |
| Cc1cc(C(=O)Nc2cnc3[nH]c(-c4ccccc4)nc3c2)[nH]n1 [P-2151, 3-methyl-N-(2-phenyl-3H-imidazo[4,5-b]pyridin-6-yl)-1H-pyrazole-5-carboxamide] | < 10000 nM | 1 to 10 µM |
| Cc1n[nH]c(C(=O)Nc2cnc3[nH]c(-c4ccccc4F)nc3c2)c1C [P-2152, N-[2-(2-fluorophenyl)-3H-imidazo[4,5-b]pyridin-6-yl]-3,4-dimethyl-1H-pyrazole-5-carboxamide] | < 10000 nM | 0.0001 to 1 µM |
| CCOc1ncc(-c2cc3cc(NC(=O)c4[nH]nc(C)c4C)cnc3[nH]2)cn1 [P-2153, N-[2-(2-ethoxypyrimidin-5-yl)-1H-pyrrolo[2,3-b]pyridin-5-yl]-3,4-dimethyl-1H-pyrazole-5-carboxamide] | < 10000 nM | 0.0001 to 1 µM |
| Cc1n[nH]c(C(=O)Nc2cnc3[nH]c(-c4cnc(C(C)C)nc4)cc3c2)c1C [P-2154, N-[2-(2-isopropylpyrimidin-5-yl)-1H-pyrrolo[2,3-b]pyridin-5-yl]-3,4-dimethyl-1H-pyrazole-5-carboxamide] | < 10000 nM | 0.0001 to 1 µM |
| Cc1n[nH]c(C(=O)Nc2cnc3[nH]c(-c4cnc(C5CC5)nc4)cc3c2)c1C [P-2155, N-[2-(2-cyclopropylpyrimidin-5-yl)-1H-pyrrolo[2,3-b]pyridin-5-yl]-3,4-dimethyl-1H-pyrazole-5-carboxamide] | < 10000 nM | 0.0001 to 1 µM |
| Cc1n[nH]c(C(=O)Nc2cnc3[nH]c(-c4cnc(NC5CC5)nc4)cc3c2)c1C [P-2157, N-[2-[2-(cyclopropylamino)pyrimidin-5-yl]-1H-pyrrolo[2,3-b]pyridin-5-yl]-3,4-dimethyl-1H-pyrazole-5-carboxamide] | < 10000 nM | 0.0001 to 1 µM |
| Cc1n[nH]c(C(=O)Nc2cnc3[nH]c(-c4cnc(N5CCOCC5)nc4)cc3c2)c1C [P-2158, 3,4-dimethyl-N-[2-(2-morpholinopyrimidin-5-yl)-1H-pyrrolo[2,3-b]pyridin-5-yl]-1H-pyrazole-5-carboxamide] | < 10000 nM | 0.0001 to 1 µM |
| CCc1cc(C(=O)Nc2cnc3[nH]c(-c4ccc(F)cc4)cc3c2)[nH]n1 [P-2159, 3-ethyl-N-[2-(4-fluorophenyl)-1H-pyrrolo[2,3-b]pyridin-5-yl]-1H-pyrazole-5-carboxamide] | < 10000 nM | 0.0001 to 1 µM |
| Cc1cc(C#N)ccc1-c1cc2cc(NC(=O)c3[nH]nc(C)c3C)cnc2[nH]1 [P-2161, N-[2-(4-cyano-2-methyl-phenyl)-1H-pyrrolo[2,3-b]pyridin-5-yl]-3,4-dimethyl-1H-pyrazole-5-carboxamide] | < 10000 nM | 0.0001 to 1 µM |
| COc1ccc(-c2cc3cc(NC(=O)c4[nH]nc(C)c4C)cnc3[nH]2)c(C)n1 [P-2169, N-[2-(6-methoxy-2-methyl-3-pyridyl)-1H-pyrrolo[2,3-b]pyridin-5-yl]-3,4-dimethyl-1H-pyrazole-5-carboxamide] | < 10000 nM | 0.0001 to 1 µM |
| O=C(Nc1cnc2[nH]c(-c3ccc(F)cc3)cc2c1)c1cc(C(F)F)n[nH]1 [P-2172, 3-(difluoromethyl)-N-[2-(4-fluorophenyl)-1H-pyrrolo[2,3-b]pyridin-5-yl]-1H-pyrazole-5-carboxamide] | < 10000 nM | 1 to 10 µM |
| Cc1n[nH]c(C(=O)Nc2cnc3[nH]c(-c4ccnc(C(=O)NC5CC5)c4)cc3c2)c1C [P-2175, N-cyclopropyl-4-[5-[(3,4-dimethyl-1H-pyrazole-5-carbonyl)amino]-1H-pyrrolo[2,3-b]pyridin-2-yl]pyridine-2-carboxamide] | < 10000 nM | 0.0001 to 1 µM |
| COc1ccncc1-c1cc2cc(NC(=O)c3[nH]nc(C)c3C)cnc2[nH]1 [P-2185, N-[2-(4-methoxy-3-pyridyl)-1H-pyrrolo[2,3-b]pyridin-5-yl]-3,4-dimethyl-1H-pyrazole-5-carboxamide] | < 10000 nM | 0.0001 to 1 µM |
| Cc1n[nH]c(C(=O)Nc2cnc3[nH]c(I)cc3c2)c1C [P-2188, N-(2-iodo-1H-pyrrolo[2,3-b]pyridin-5-yl)-3,4-dimethyl-1H-pyrazole-5-carboxamide] | < 10000 nM | 1 to 10 µM |
| Cc1n[nH]c(C(=O)Nc2cnc3[nH]c(-c4ccc(F)nc4)cc3c2)c1C [P-2269, N-[2-(6-fluoro-3-pyridyl)-1H-pyrrolo[2,3-b]pyridin-5-yl]-3,4-dimethyl-1H-pyrazole-5-carboxamide] | < 10000 nM | 0.0001 to 1 µM |
| Cc1n[nH]c(C(=O)Nc2cnc3[nH]c(-c4ccc(F)cc4)cc3c2)c1F [P-2275, 4-fluoro-N-[2-(4-fluorophenyl)-1H-pyrrolo[2,3-b]pyridin-5-yl]-3-methyl-1H-pyrazole-5-carboxamide] | < 10000 nM | 0.0001 to 1 µM |
| Cc1n[nH]c(C(=O)Nc2cnc3[nH]c(-c4cccc(C(=O)NCC(C)C)c4)cc3c2)c1C [P-2276, N-[2-[3-(isobutylcarbamoyl)phenyl]-1H-pyrrolo[2,3-b]pyridin-5-yl]-3,4-dimethyl-1H-pyrazole-5-carboxamide] | < 10000 nM | 0.0001 to 1 µM |
| Cc1nc(F)ccc1-c1cc2cc(NC(=O)c3[nH]nc(C)c3C)cnc2[nH]1 [P-2283, N-[2-(6-fluoro-2-methyl-3-pyridyl)-1H-pyrrolo[2,3-b]pyridin-5-yl]-3,4-dimethyl-1H-pyrazole-5-carboxamide] | < 10000 nM | 0.0001 to 1 µM |
| Cc1c(C(F)F)n[nH]c1C(=O)Nc1cnc2[nH]c(-c3ccc(F)cc3)cc2c1 [P-2287, 3-(difluoromethyl)-N-[2-(4-fluorophenyl)-1H-pyrrolo[2,3-b]pyridin-5-yl]-4-methyl-1H-pyrazole-5-carboxamide] | < 10000 nM | 0.0001 to 1 µM |
| O=C(Nc1cnc2[nH]c(I)cc2c1)c1cccc2n[nH]cc12 [P-2288, N-(2-iodo-1H-pyrrolo[2,3-b]pyridin-5-yl)-2H-indazole-4-carboxamide] | < 10000 nM | 1 to 10 µM |
